Test results: patent publication US12435097B2, “Arginase inhibitors and methods of use thereof” (AstraZeneca AB, priority 2019, dated 2025)
Read-outs that look alike come from different tables or passages of the source.

Key:
[1] = molecular target: T1, Human Arginase 1 (Homo sapiens, UniProt P05089); experiment: Human Arginase 1 enzyme inhibition (thioarginine/DTNB absorbance at 412 nm); type: biochemical; conditions: recombinant enzyme from E. coli, 5 nM; 30 min pre-incubation, 60 min reaction
T1 construct: made in house; host or cells: E. coli
T1 sequence (P05089 1-322): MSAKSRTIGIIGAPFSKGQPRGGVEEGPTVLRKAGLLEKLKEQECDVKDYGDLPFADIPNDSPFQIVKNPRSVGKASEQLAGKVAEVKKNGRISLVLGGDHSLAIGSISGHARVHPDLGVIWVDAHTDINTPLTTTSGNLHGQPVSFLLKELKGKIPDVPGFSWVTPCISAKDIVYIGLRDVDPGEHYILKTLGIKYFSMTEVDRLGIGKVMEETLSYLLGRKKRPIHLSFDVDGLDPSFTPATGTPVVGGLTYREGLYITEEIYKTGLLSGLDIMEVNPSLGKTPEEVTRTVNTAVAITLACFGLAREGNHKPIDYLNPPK
From the text: (§1) The inhibitory effects of Examples 1 to 12 on the activity of Human Arginase 1 and Arginase 2 activity were quantified by measuring the formation of the thiol group from thioarginine using recombinant Arginase 1 or Arginase 2 produced from E. coli. The thiol group was detected with Ellman's reagent, 5,5′-dithiobis(2-nitrobenzoic acid) (DTNB). DTNB reacts with the thiol to give the mixed disulfide and 2-nitro-5-thiobenzoic acid (TNB) which is quantified by the absorbance of the anion (TNB^2−) at 412 nm.
(§2) The assays were run in clear 384 well plates (Greiner cat no: 781101). Various concentrations of Examples 1 to 12 in 300 nL DMSO were dispensed to assay plates using an Echo acoustic dispenser immediately followed by plate sealing and centrifugation. Two pre-mixes were prepared from reagents thawed immediately before addition to assay plates. Pre-mix one comprised human Arginase 1 or human Arginase 2, at a final concentration of 5 nM and 0.5 mM DTNB in assay buffer, 45 mM HEPES pH7.5, brij 35, 0.045% (w/v) and 100 μM MnCl2. Pre-mix two comprised freshly thawed 0.5 mM thioarginine in assay buffer. Fifteen microlitres of pre-mix one was dispensed to assay plates containing Examples 1 to 12, centrifuged and incubated for 30 minutes at room temperature prior to adding fifteen microlitres of pre-mix two.
(§3) Assay plates were centrifuged prior to reading absorbance at 412 nm in a Pherastar multi-mode plate reader to collect data at time point 0 (T0). The plates were incubated at room temperature for 60 min prior to reading again to collect data at time point 1 (T1). Data is derived by subtracting the A412 signal measured at T0 (time point 0) from that measured at T1 (time point 1). The data was transformed to % effect using the equation: Compound % effect=100*[(X−min)/(max−min)], where X represents the normalized value for the compound based on the Min (vehicle) and Max (reference compound) inhibition control.
(§4) The concentration of Examples 1 to 12 that inhibited the activity by 50% (i.e. the IC50) was calculated by plotting the % effect versus test compound concentration and fitting the data using the Genedata Screener Smart fit algorithm.

[2] = molecular target: T2, Human Arginase 2 (Homo sapiens, UniProt P78540); experiment: Human Arginase 2 enzyme inhibition (thioarginine/DTNB absorbance at 412 nm); type: biochemical; conditions: recombinant enzyme from E. coli, 5 nM; 30 min pre-incubation, 60 min reaction
T2 construct: made in house; host or cells: E. coli
T2 sequence (P78540 23-354): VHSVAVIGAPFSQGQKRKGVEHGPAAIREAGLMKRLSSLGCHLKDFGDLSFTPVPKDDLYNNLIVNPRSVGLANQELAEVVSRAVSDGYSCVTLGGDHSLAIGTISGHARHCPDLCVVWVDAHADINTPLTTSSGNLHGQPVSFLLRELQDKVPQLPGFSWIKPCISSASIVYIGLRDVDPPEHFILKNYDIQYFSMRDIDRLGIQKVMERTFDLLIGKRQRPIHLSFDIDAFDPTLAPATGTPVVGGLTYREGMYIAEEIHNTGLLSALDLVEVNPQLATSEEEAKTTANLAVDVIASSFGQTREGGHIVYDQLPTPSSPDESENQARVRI
From the text: as §1, §2, §3, §4

[3] = Bioavailability / pharmacokinetic study in male rats (IV and PO); type: in vivo; conditions: plasma; for bioavailability / AUC / Cmax / Tmax: male, rat, po, 5 mg/kg; for clearance / Vd: male rat; for Vd: read-out: Vdss
Method: Examples 2, 3, and 4 are prodrug forms of Example 1. […] Example 2 was formulated in 0.9% w/v saline pH 4 (adjusted with 1M HCl) for IV dosing. The formulation was dosed at 2 mg/kg by femoral catheter to two male rats each (170-250 g). Jugular vein catheter serial blood samples were taken at 0.033, 0.083, 0.167, 0.5, 1, 2, 4, 8, and 24 hrs post-dose. For PO dosing, Example 2 was formulated in deionized water pH 4 (adjusted with 1M HCl) and dosed at 5 mg/kg by oral gavage to two male rats each (170-250 g). Serial blood samples were taken by jugular vein catheter at 0.25, 0.5, 1, 1.5, 2, 3, 4, 8, and 24 hrs post dose. Plasma samples were generated from blood using low speed centrifugation. A single set of calibration standards containing Example 1 and Example 2 were prepared by spiking blank plasma. The samples and standards were extracted by precipitation with two volumes of acetonitrile followed by centrifugation. The results obtained were used to determine the Cl (mL/min/kg), Vdss (L/kg), Cmax (μM), AUC (μM h), tmax (h), and % F for both Example 1 and Example 2. Absolute bioavailability was determined by comparing the PO dose normalized AUC of Example 1 when dosed as Example 2, versus the dose normalized IV AUC of Example 1 when dosed as Example 1. Where appropriate, measured and not nominal doses were used to calculate bioavailability. In an analogous fashion, the same procedure was repeated for Examples 3 and 4.

[4] = PO 5 mg/kg of Example 2, Example 1 measured when dosed as pro-drug
[5] = PO dosing of Example 3, Example 1 measured when dosed as pro-drug
[6] = PO dosing of Example 4, Example 1 measured when dosed as pro-drug
[7] = PO 5 mg/kg vs IV 2 mg/kg, pro-drug measured when dosed as pro-drug
[8] = PO 5 mg/kg, pro-drug measured when dosed as pro-drug
[9] = IV 2 mg/kg, pro-drug measured when dosed as pro-drug

Question: Which results are given for `N[C@@H]1CCN[C@](CCCCB(O)O)(C(=O)O)C1` (single isomer, unassigned) [Example 12]?
Answer: IC50 [1]: 2200 nM; IC50 [2]: 2540 nM

Question: What does the source list for `N[C@H]1CCN[C@](CCCCB(O)O)(C(=O)O)C1` (single isomer, unassigned; enantiomer 1) [Example 10, Anti-4-amino-2-(4-boronobutyl)piperidine-2-carboxylic acid enantiomer 1]?
Answer: IC50 [1]: 20100 nM; IC50 [2]: 53100 nM

Question: For `N[C@H]1CCN[C@](CCCCB(O)O)(C(=O)O)C1` (single isomer, unassigned; enantiomer 2) [Example 11, anti-4-amino-2-(4-boronobutyl)piperidine-2-carboxylic acid enantiomer 2], which IC50 [1] is on record?
Answer: 3150 nM

Question: What about the IC50 [2] of the same compound?
Answer: 4370 nM

Question: Which results are given for `N[C@H]1CCN[C@@](CCCCB(O)O)(C(=O)O)C1` [Example 1, (2R,4S)-4-amino-2-(4-boronobutyl)piperidine-2-carboxylic acid]?
Answer: IC50 [1]: 3 nM; IC50 [2]: 4 nM; bioavailability ([3]; Example 1 after PO Example 2 vs IV AUC of Example 1 dosed as Example 1, dose normalized): 82%; bioavailability ([3]; Example 1 after PO Example 3 vs IV AUC of Example 1 dosed as Example 1, dose normalized): 78%; bioavailability ([3]; Example 1 after PO Example 4 vs IV AUC of Example 1 dosed as Example 1, dose normalized): 20%; AUC [3, 4]: 23.7 µM·h; Cmax [3, 4]: 2500 nM; Tmax [3, 4]: 2.3 h; AUC [3, 5]: 25.7 µM·h; Cmax [3, 5]: 2000 nM; Tmax [3, 5]: 2.5 h; AUC [3, 6]: 6.1 µM·h; Cmax [3, 6]: 1000 nM; Tmax [3, 6]: 1.5 h; clearance ([3]; IV, Example 1 dosed as payload): 8.5 mL/min/kg; Vd ([3]; IV, Example 1 dosed as payload): 0.23 L/kg

Question: For `CC(C)[C@H](N)C(=O)N[C@H]1CCN[C@@](CCCCB(O)O)(C(=O)O)C1` [Example 2, (2R,4S)-4-((S)-2-amino-3-methylbutanamido)-2-(4-boronobutyl)piperidine-2-carboxylic acid], which IC50 [1] is on record?
Answer: 29 nM

Question: What about the IC50 [2] of the same compound?
Answer: 24 nM

Question: And the bioavailability [3, 7]?
Answer: 2%

Question: What about the AUC [3, 8] of the same compound?
Answer: 0.29 µM·h

Question: And the Cmax [3, 8]?
Answer: 350 nM

Question: And the Tmax [3, 8]?
Answer: 0.25 h

Question: What about the clearance [3, 9] of the same compound?
Answer: 16.3 mL/min/kg

Question: What about the Vd [3, 9] of the same compound?
Answer: 0.25 L/kg

Question: Which IC50 [1] does the source give for `NCC(=O)N[C@H]1CCN[C@@](CCCCB(O)O)(C(=O)O)C1` [Example 3, (2R,4S)-4-(2-aminoacetamido)-2-(4-boronobutyl)piperidine-2-carboxylic acid] here?
Answer: 80 nM

Question: And the IC50 [2]?
Answer: 59 nM

Question: And the bioavailability [3, 7]?
Answer: 5.2%

Question: What about the AUC [3, 8] of the same compound?
Answer: 1.1 µM·h

Question: And the Cmax [3, 8]?
Answer: 640 nM

Question: What about the Tmax [3, 8] of the same compound?
Answer: 0.75 h

Question: What about the clearance [3, 9] of the same compound?
Answer: 13.5 mL/min/kg

Question: And the Vd [3, 9]?
Answer: 0.22 L/kg

Question: Which IC50 [1] does the source give for `C[C@H](N)C(=O)N[C@H]1CCN[C@@](CCCCB(O)O)(C(=O)O)C1` [Example 4, (2R,4S)-4-[[(2S)-2-aminopropanoyl]amino]-2-(4-boronobutyl)piperidine-2-carboxylic acid] here?
Answer: 35 nM

Question: What about the IC50 [2] of the same compound?
Answer: 27 nM

Question: And the clearance [3, 9]?
Answer: 180 mL/min/kg

Question: For `CC[C@H](N)C(=O)N[C@H]1CCN[C@@](CCCCB(O)O)(C(=O)O)C1` [Example 5, (2R,4S)-4-[[(2S)-2-aminobutanoyl]amino]-2-(4-boronobutyl)piperidine-2-carboxylic acid], which IC50 [1] is on record?
Answer: 25 nM

Question: What about the IC50 [2] of the same compound?
Answer: 21 nM

Question: For `CC(C)C[C@H](N)C(=O)N[C@H]1CCN[C@@](CCCCB(O)O)(C(=O)O)C1` [Example 6, (2R,4S)-4-[[(2S)-2-amino-4-methyl-pentanoyl]amino]-2-(4-boronobutyl)piperidine-2-carboxylic acid], which IC50 [1] is on record?
Answer: 18 nM

Question: And the IC50 [2]?
Answer: 15 nM

Question: Which IC50 [1] does the source give for `CC[C@H](C)[C@H](N)C(=O)N[C@H]1CCN[C@@](CCCCB(O)O)(C(=O)O)C1` [Example 7, (2R,4S)-4-[[(2S,3S)-2-amino-3-methyl-pentanoyl]amino]-2-(4-boronobutyl)piperidine-2-carboxylic acid] here?
Answer: 23 nM

Question: And the IC50 [2]?
Answer: 21 nM

Question: Which results are given for `CC(C)(C)[C@H](N)C(=O)N[C@H]1CCN[C@@](CCCCB(O)O)(C(=O)O)C1` [Example 8, (2R,4S)-4-[[(2S)-2-amino-3,3-dimethyl-butanoyl]amino]-2-(4-boronobutyl)piperidine-2-carboxylic acid]?
Answer: IC50 [1]: 31 nM; IC50 [2]: 24 nM

Question: With `CC(C)[C@@H](N)C(=O)N[C@H]1CCN[C@@](CCCCB(O)O)(C(=O)O)C1` [Example 9, (2R,4S)-4-[[(2R)-2-amino-3-methyl-butanoyl]amino]-2-(4-boronobutyl)piperidine-2-carboxylic acid] as the compound, how does the IC50 [1] read?
Answer: 234 nM

Question: And the IC50 [2]?
Answer: 180 nM
